Assay results reported in article PMC10368370, “Development of o-aminobenzamide salt derivatives for improving water solubility and anti-undifferentiated gastric cancer” (Frontiers in Pharmacology, 2023).
Read-outs that look alike come from different tables or passages of the source.

Tests used:
HGC-27 xenograft = assay: HGC-27 tumor xenograft model; format: in vivo, BALB/c nude mice; settings: p.o., bid, 14 days, HGC-27 xenograft
Procedure: 4-week-old male BALB/c nude mice weighing 18g–22 g were injected with 100 μL HGC-27 cells (2 × 10^6 cells) to establish an undifferentiated gastric cancer model.
(A) Tumor volumes plotted as mean ± SEM. (B) Mice weight curve during treatment plotted as mean ± SD. (C,D) Tumor weight and size on the final day.

HGC-27 cells = assay: MTT cytotoxicity / anti-proliferation assay; format: cell-based, human; settings: Homo sapiens, HGC-27, 72 h, HGC-27, MTT, read-out: IC50, cancer cell viability
Procedure: Undifferentiated human gastric cancer cell line (HGC-27) was purchased from the China Center for Type Collection (CCTCC, China) and used with 10% Foetal Bovine Serum (FBS, Gemini, Bio-Product, CA, United States), 1% penicillin streptomycin (PS) and 89% 1,640 medium ([…]) for culture. All cells were incubated at 37°C in a constant temperature incubator containing 95% air and 5% CO2.
To evaluate the cytotoxicity of F8 and related organic salts on HGC-27 cells, MTT analysis was performed. HGC-27 cells were digested with trypsin, then cells were spread into 96-well plates at a density of 3,000 cells/well and incubated for 12–16 h. After 12 h, the medium in 96-well plates was replaced with compounds containing 1, 0.5, 0.25, 0.125, 0.062, 0.0312 μM for another 72 h. Three days later, 20 μL MTT solution was added and incubated at 37°C for 4 h. Then 150 μL DMSO solution was added to each well after the fluid was removed, and the absorbance was detected by microplate reader. The compound dissolved in DMSO was added to the cell medium so that the final concentration of DMSO was less than 0.4%.
Infinite proliferation is one of the most prominent features of cancer cells, therefore, we evaluated the anti-proliferation activity of compounds F8 and related organic salts against human gastric carcinoma HGC-27 via MTT assay.

MDA-MB-468 = assay: MTT cytotoxicity / anti-proliferation assay; format: cell-based; settings: Homo sapiens, MDA-MB-468, 72 h, MDA-MB-468, MTT, read-out: IC50, cancer cell viability
SK-Hep-1 = assay: MTT cytotoxicity / anti-proliferation assay; format: cell-based; settings: SK-Hep-1, MTT, 72 h; read-out: IC50, cancer cell viability
HuH7 = assay: MTT cytotoxicity / anti-proliferation assay; format: cell-based; settings: 72 h, read-out: IC50, cancer cell viability
HCT-116 = assay: MTT cytotoxicity / anti-proliferation assay; format: cell-based; settings: Homo sapiens, HCT-116, 72 h, HCT-116, MTT, read-out: IC50, cancer cell viability
HCC-1806 = assay: MTT cytotoxicity / anti-proliferation assay; format: cell-based; settings: Homo sapiens, HCC1806, 72 h, HCC-1806, MTT, read-out: IC50, cancer cell viability
MCF-7 = assay: MTT cytotoxicity / anti-proliferation assay; format: cell-based; settings: Homo sapiens, MCF7, 72 h, MCF-7, MTT, read-out: IC50, cancer cell viability
HCC-1937 = assay: MTT cytotoxicity / anti-proliferation assay; format: cell-based; settings: Homo sapiens, HCC1937, 72 h, HCC-1937, MTT, read-out: IC50, cancer cell viability
MDA-MB-231 = assay: MTT cytotoxicity / anti-proliferation assay; format: cell-based; settings: Homo sapiens, MDA-MB-231, 72 h, MDA-MB-231, MTT, read-out: IC50, cancer cell viability
[1] = Solubility in aqueous solution (pure water, normal saline); format: physicochemical
Pharmacokinetic study = format: in vivo, SD rats; settings: SD rats; for Cmax: read-out: Cmax
Procedure: 7–8-week Male SD rats weighing 180–220 g were allowed for this experiment. The rats were fasted 12 h except for water. The solution was administered to rats by intravenous injection of 10% ethanol +10% solutol as solvent and intragastric injection of 5% castor oil +5% solutol as solvent. The dose concentration was 8 mg/mL for intravenous injection and 10 mg/mL for gavage.
Twelve male SD rats were divided into 4 groups with 3 rats in each group. Group 1 was F8-intravenous injection group, the dose was 20 mg/kg; Group 2 was F8- intragastric administration group, the dose was 100 mg/kg; Group 3 was F8·2HCl-intragastric administration group, the dose was 100 mg/kg. Blank blood was collected before administration, and blood was collected at predetermined time points after administration:
Intravenous injection group: before administration, 2 min, 5 min, 15 min, 30 min, 1 h, 2 h, 4 h, 8 h, 12 h, 24 h. Intragastric administration group: Before administration, 5 min, 15 min, 30 min, 1 h, 2 h, 4 h, 6 h, 8 h, 12 h, 24 h. About 0.5 mL of blood was collected and placed in an EDTA-K2 tube at […]. The plasma was centrifuged and stored at −80°C. The samples were detected by liquid-mass spectrometry analysis system. The chromatographic column used was ODS-C18 (4.6 × 50 mm, 3 µm). The chromatographic conditions were as follows: Mobile phase A is aqueous phase, […] (including 0.1% formic acid); Mobile phase B is organic, 95% acetonitrile (containing 0.1% formic acid). Flow rate of 0.4 mL/min, column temperature: room temperature, according to the drug plasma concentration data, calculated pharmacokinetic parameters using DAS 2.0 software.
After oral administration, drugs need to go through four stages, namely, absorption, distribution, metabolism and excretion. However, the changes in solubility of drugs after salting only affect the absorption stage. Since absorption is accompanied by a dissolution process, the water solubility and dissolution rate of drugs are the main factors that determine their absorption, and then affect their oral bioavailability ([Elder et al., 2013]). Under the stimulation of cell activity and increased solubility, pharmacokinetic experiments were carried out to understand the drug exposure and provide a basis for further druggability of compound F8. In this study, compound F8 and F8·2HCl were administered in two different ways: tail vein injection (20 mg/kg) and gavage (100 mg/kg), and pharmacokinetic parameters were measured in Sprague-Dawley (SD) rats (Figures 3, 4).

MGC-803 = test system: MGC-803; set-up: method as in Feng et al., 2022; settings: MGC-803, previous work; ref Feng et al., 2022; cited from earlier work
AGS = test system: AGS; set-up: method as in Feng et al., 2022; settings: previous work, ref Feng et al., 2022; cited from earlier work
GES-1 = test system: GES-1; set-up: method as in Feng et al., 2022; settings: GES-1 normal cells, previous work; ref Feng et al., 2022; cited from earlier work
[2] = male, Sprague-Dawley, rat, plasma, iv, 20 mg/kg
[3] = male, Sprague-Dawley, rat, plasma, oral, 100 mg/kg, 100 mg/kg, route ip (methods: intragastric)

With N#CC1(c2ccc(NC(=O)c3cccnc3NCc3ccncc3)cc2)CCCC1 [Apatinib, apatinib, reference compound] the “tumor growth inhibition (TGI)” value (HGC-27 xenograft; 37.5 mg/kg) was 50.0%.
O=C(NCc1ccc(NC(=O)c2cc(F)ccc2N2CCCC2)cc1)OCc1cccnc1 [F8] showed an IC50 (HGC-27 cells) of 0.26 ± 0.03 µM, an IC50 (MDA-MB-468) of 1.45 ± 0.12 µM and an IC50 (SK-Hep-1) of 1.65 ± 0.15 µM. The IC50 (HuH7) was 2.35 ± 0.29 µM, the IC50 (HCT-116) was 4.89 ± 0.35 µM and the IC50 (HCC-1806) was 21.1 ± 0.74 µM. For the same molecule, the IC50 (MCF-7) was 43.5 ± 0.36 µM, the IC50 (HCC-1937) was 47.05 ± 0.07 µM and the IC50 (MDA-MB-231) was 53.8 ± 0.59 µM. The “solubility in normal saline” value ([1]; normal saline, compared with pure water) was “not much different from pure water”, the “Solubility in aqueous solution” value ([1]; pure water) was “less than 1 mg/mL” and the Tmax (Pharmacokinetic study; 100 mg/kg, route ip (methods: intragastric), 100 mg/kg) was 0.19 h. It also gave a peak plasma concentration (Pharmacokinetic study; oral administration 100 mg/kg, 100 mg/kg) of 0.4 µg/mL, an AUC(0-inf) (Pharmacokinetic study; [2]) of 6990 ng·h/mL and a half-life (Pharmacokinetic study; [2]) of 3.09 h. The Cmax (Pharmacokinetic study; male, Sprague-Dawley, rat, plasma, iv, 20 mg/kg, 20 mg/kg, iv) was 12100 ng/mL, the Tmax (Pharmacokinetic study; male, Sprague-Dawley, rat, plasma, iv, 20 mg/kg, 20 mg/kg, iv, read-out: Tmax) was 0.03 h and the AUC(0-inf) (Pharmacokinetic study; [3]) was 1130 ng·h/mL. It also gave a half-life (Pharmacokinetic study; [3]) of 2.66 h, a Cmax (Pharmacokinetic study; [3]) of 400 ng/mL and a bioavailability (Pharmacokinetic study; male, Sprague-Dawley, rat, plasma, oral, 100 mg/kg, oral 100 mg/kg vs iv 20 mg/kg, read-out: bioavailability) of 3.23%. The AUC(0-t) (Pharmacokinetic study; male, Sprague-Dawley, rat, plasma, po, 100 mg/kg, area under the concentration-time curve (AUC0-t), oral administration 100 mg/kg, heading: area under the concentration-time curve) was ~1130 ng·h/mL, the “tumor growth inhibition (TGI)” value (HGC-27 xenograft; 75 mg/kg) was 52.8% and the IC50 (MGC-803) was 10.7 µM. For the same molecule, the IC50 (AGS) was 23.3 µM and the IC50 (GES-1) was > 100 µM.
